In patent EP3928779A1 (Chugai Seiyaku Kabushiki Kaisha, priority 2014, dated 2016):

Test system: rat small-intestinal brush border membrane vesicles
Experiment: Inhibitory effect on 33PO4 uptake into rat small-intestinal brush border membrane vesicles (rapid filtration method)
Assay type: biochemical
Conditions: 33PO4 uptake into rat small-intestinal BBMVs; test compound 1 µM; reacted for 60 seconds
How it was run: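 Uptake of ^33PO4 was measured by rapid filtration and liquid scintillation counting of filter-retained vesicles, after quenching with ice-cold 110 mM NaCl/1 mM KH2PO4/10 mM HEPES pH 7.5. Vesicles were brush border membranes from the upper small intestine of female Wistar rats aged 4–5 weeks.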

Structure (SMILES) | Rate of uptake inhibition (%) (1 µM)
COCC(C)(C)N(C)CCOc1ccc(CN2C(=O)C(C(=O)Nc3ccc(C(F)(F)F)cc3-c3cc(C(F)(F)F)ncn3)=C(O)C3(CCCC3)N2C)c(F)c1F [Example 372] | 38%
CN(CCO)CCOc1ccc(CN2C(=O)C(C(=O)Nc3ccc(C(F)(F)F)cc3-c3cc(C(F)(F)F)ncn3)=C(O)C3(CCCC3)N2C)c(F)c1F [Example 373] | 27%
CN1N(Cc2ccc(OCCN3CCC(N4CCOCC4)CC3)c(F)c2F)C(=O)C(C(=O)Nc2ccc(C(F)(F)F)cc2-c2cc(C(F)(F)F)ncn2)=C(O)C12CCCC2 [Example 374] | 42%
COC[C@@H]1CCCN1CCOc1ccc(CN2C(=O)C(C(=O)Nc3ccc(C(F)(F)F)cc3-c3cc(C(F)(F)F)ncn3)=C(O)C3(CCCC3)N2C)c(F)c1F [Example 375] | 31%
CN1N(Cc2ccc(OCCN3CCN(CCO)CC3)c(F)c2F)C(=O)C(C(=O)Nc2ccc(C(F)(F)F)cc2-c2cc(C(F)(F)F)ncn2)=C(O)C12CCCC2 [Example 376] | 33%
COCCN1CCN(CCOc2ccc(CN3C(=O)C(C(=O)Nc4ccc(C(F)(F)F)cc4-c4cc(C(F)(F)F)ncn4)=C(O)C4(CCCC4)N3C)c(F)c2F)CC1 [Example 377] | 29%
CN1N(Cc2ccc(OCCN3CCN(CCOCCO)CC3)c(F)c2F)C(=O)C(C(=O)Nc2ccc(C(F)(F)F)cc2-c2cc(C(F)(F)F)ncn2)=C(O)C12CCCC2 [Example 378] | 35%
CN1N(Cc2ccc(OCCN3CCN(S(C)(=O)=O)CC3)c(F)c2F)C(=O)C(C(=O)Nc2ccc(C(F)(F)F)cc2-c2cc(C(F)(F)F)ncn2)=C(O)C12CCCC2 [Example 379] | 37%
CN1N(Cc2ccc(OCCN3[C@@H]4COC[C@H]3C4)c(F)c2F)C(=O)C(C(=O)Nc2ccc(C(F)(F)F)cc2-c2cc(C(F)(F)F)ncn2)=C(O)C12CCCC2 [Example 380] | 43%
CN1N(Cc2ccc(OCCN[C@@H](CC(=O)O)C(=O)O)c(F)c2F)C(=O)C(C(=O)Nc2ccc(C(F)(F)F)cc2-c2cc(C(F)(F)F)ncn2)=C(O)C12CCCC2 [Example 381, (2S)-2-[2-[2,3-Difluoro-4-[[10-hydroxy-6-methyl-8-oxo-9-[[4-trifluoromethyl-2-[6-(trifluoromethyl)pyrimidin-4-yl]phenyl]carbamoyl]-6,7-diazaspiro[4.5]dec-9-en-7-yl]methyl]phenoxy]ethylamino]butanedioate] | 28%
CN1N(Cc2ccc(OCCNC(CC(=O)O)CC(=O)O)c(F)c2F)C(=O)C(C(=O)Nc2ccc(C(F)(F)F)cc2-c2cc(C(F)(F)F)ncn2)=C(O)C12CCCC2 [Example 382, 3-[2-[2.3-Difluoro-4-[[10-hydroxy-6-methyl-8-oxo-9-[[4-(trifluoromethyl)-2-[6-(trifluoromethyl)pyrimidin-4-yl]phenyl]carbamoyl]-6,7-diazaspiro[4.5]dee-9-en-7-yl)methyl]phenoxy]ethylamino]pentanedioate] | 21%
CN1N(Cc2ccc(OCCCOC[C@H](O)CO)c(F)c2F)C(=O)C(C(=O)Nc2ccc(C(F)(F)F)cc2-c2ccc(C(F)(F)F)nc2)=C(O)C12CCC2 [Example 383] | 26%
CN1N(Cc2ccc(OCCCCOC[C@H](O)CO)c(F)c2F)C(=O)C(C(=O)Nc2ccc(C(F)(F)F)cc2-c2ccc(C(F)(F)F)nc2)=C(O)C12CCC2 [Example 384] | 39%
CN1N(Cc2ccc(OCCCCCOC[C@H](O)CO)c(F)c2F)C(=O)C(C(=O)Nc2ccc(C(F)(F)F)cc2-c2ccc(C(F)(F)F)nc2)=C(O)C12CCC2 [Example 385] | 39%
CN1N(Cc2ccc(OCCCOC[C@H](O)CO)c(F)c2F)C(=O)C(C(=O)Nc2ccc(C(F)(F)F)cc2-c2ccc(C(F)(F)F)nc2)=C(O)C12CCCC2 [Example 386] | 36%
CN1N(Cc2ccc(OCCCCOC[C@H](O)CO)c(F)c2F)C(=O)C(C(=O)Nc2ccc(C(F)(F)F)cc2-c2ccc(C(F)(F)F)nc2)=C(O)C12CCCC2 [Example 387] | 23%
CN1N(Cc2ccc(OCCCCCOC[C@H](O)CO)c(F)c2F)C(=O)C(C(=O)Nc2ccc(C(F)(F)F)cc2-c2ccc(C(F)(F)F)nc2)=C(O)C12CCCC2 [Example 388] | 15%
CN1N(Cc2ccc(OCCCOC[C@H](O)CO)c(F)c2F)C(=O)C(C(=O)Nc2ccc(C(F)(F)F)cc2-c2cc(C(F)(F)F)ncn2)=C(O)C12CCC2 [Example 389] | 29%
CN1N(Cc2ccc(OCCCCOC[C@H](O)CO)c(F)c2F)C(=O)C(C(=O)Nc2ccc(C(F)(F)F)cc2-c2cc(C(F)(F)F)ncn2)=C(O)C12CCC2 [Example 390] | 58%

Structure (SMILES) | Rate of uptake inhibition (%) (1 µM)
CN1N(Cc2ccc(OCCCCCOC[C@H](O)CO)c(F)c2F)C(=O)C(C(=O)Nc2ccc(C(F)(F)F)cc2-c2cc(C(F)(F)F)ncn2)=C(O)C12CCC2 [Example 391] | 42%
CN1N(Cc2ccc(OCCCOC[C@H](O)CO)c(F)c2F)C(=O)C(C(=O)Nc2ccc(C(F)(F)F)cc2-c2cc(C(F)(F)F)ncn2)=C(O)C12CCCC2 [Example 392] | 47%
CN1N(Cc2ccc(OCCCCOC[C@H](O)CO)c(F)c2F)C(=O)C(C(=O)Nc2ccc(C(F)(F)F)cc2-c2cc(C(F)(F)F)ncn2)=C(O)C12CCCC2 [Example 393] | 45%
CN1N(Cc2ccc(OCCCCCOC[C@H](O)CO)c(F)c2F)C(=O)C(C(=O)Nc2ccc(C(F)(F)F)cc2-c2cc(C(F)(F)F)ncn2)=C(O)C12CCCC2 [Example 394] | 45%
CN1N(Cc2ccc(OCCCOCCO)c(F)c2F)C(=O)C(C(=O)Nc2ccc(C(F)(F)F)cc2-c2cc(C(F)(F)F)ncn2)=C(O)C12CCCC2 [Example 395] | 39%
CN1N(Cc2ccc(OCCCCOCCO)c(F)c2F)C(=O)C(C(=O)Nc2ccc(C(F)(F)F)cc2-c2cc(C(F)(F)F)ncn2)=C(O)C12CCCC2 [Example 396] | 38%
CN1N(Cc2ccc(OCCCCCOCCO)c(F)c2F)C(=O)C(C(=O)Nc2ccc(C(F)(F)F)cc2-c2cc(C(F)(F)F)ncn2)=C(O)C12CCCC2 [Example 397] | 40%
CN1N(Cc2ccc(OCCCOCCCO)c(F)c2F)C(=O)C(C(=O)Nc2ccc(C(F)(F)F)cc2-c2cc(C(F)(F)F)ncn2)=C(O)C12CCCC2 [Example 398] | 34%
CN1N(Cc2ccc(OCCCCOCCCO)c(F)c2F)C(=O)C(C(=O)Nc2ccc(C(F)(F)F)cc2-c2cc(C(F)(F)F)ncn2)=C(O)C12CCCC2 [Example 399] | 42%
CN1N(Cc2ccc(OCCCCCOCCCO)c(F)c2F)C(=O)C(C(=O)Nc2ccc(C(F)(F)F)cc2-c2cc(C(F)(F)F)ncn2)=C(O)C12CCCC2 [Example 400] | 36%
COCCOCCOc1ccc(CN2C(=O)C(C(=O)Nc3ccc(C(F)(F)F)cc3-c3cc(C(F)(F)F)ncn3)=C(O)C3(CCC3)N2C)c(F)c1F [Example 401] | 39%
CN(CCOc1ccc(CN2C(=O)C(C(=O)Nc3ccc(C(F)(F)F)cc3-c3cc(C(F)(F)F)ncn3)=C(O)C3(CCC3)N2C)c(F)c1F)C1COC1 [Example 402, 6-(2,3-Difluoro-4-(2-(methyl(oxetan-3-yl)amino)ethoxy)benzyl)-9-hydroxy-5-methyl-7-oxo-N-(4-(trifluoromethyl)-2-(6-(trifluoromethyl)pyrimidin-4-yl)phenyl)-5,6-diazaspiro[3.5]non-8-ene-8-carboxamide] | 54%
CN1N(Cc2ccc(OC3COC3)c(F)c2F)C(=O)C(C(=O)Nc2ccc(C(F)(F)F)cc2-c2cc(C(F)(F)F)ncn2)=C(O)C12CCC2 [Example 403, 6-(2,3-Difluoro-4-(oxetan-3-yloxy)benzyl)-9-hydroxy-5-methyl-7-oxo-N-(4-(trifluoromethyl)-2-(6-(trifluoromethyl)pyrimidin-4-yl)phenyl)-5,6-diazaspiro[3.5]non-8-ene-8-carboxamide] | 71%
COCCN1CCC[C@H]1COc1ccc(CN2C(=O)C(C(=O)Nc3ccc(C(F)(F)F)cc3-c3cc(C(F)(F)F)ncn3)=C(O)C3(CCC3)N2C)c(F)c1F [Example 404, 6-[[2,3-Difluoro-4-[[(2S)-1-(2-methoxyethyl)pyrrolidin-2-yl]methoxy]phenyl]methyl]-9-hydroxy-5-methyl-7-oxo-N-[4-(trifluoromethyl)-2-[6-(trifluoromethyl)pyrimidin-4-yl]phenyl]-5,6-diazaspiro[3.5]non-8-ene-8-carboxamide] | 43%
COCCN1CC[C@@H](Oc2ccc(CN3C(=O)C(C(=O)Nc4ccc(C(F)(F)F)cc4-c4cc(C(F)(F)F)ncn4)=C(O)C4(CCC4)N3C)c(F)c2F)C1 [Example 405, 6-[[2,3-Difluoro-4-[(3R)-1-(2-methoxyethyl)pyrrolidin-3-yl]oxyphenyl]methyl]-9-hydroxy-5-methyl-7-oxo-N-[4-(trifluoromethyl)-2-[6-(trifluoromethyl)pyrimidin-4-yl]phenyl]-5,6-diazaspiro[3.5]non-8-ene-8-carboxamide] | 30%
COCCN1CC(Oc2ccc(CN3C(=O)C(C(=O)Nc4ccc(C(F)(F)F)cc4-c4cc(C(F)(F)F)ncn4)=C(O)C4(CCC4)N3C)c(F)c2F)C1 [Example 406] | 27%
CN1N(Cc2ccc(OC(C)(C)CN3CCOCC3)c(F)c2F)C(=O)C(C(=O)Nc2ccc(C(F)(F)F)cc2-c2cc(C(F)(F)F)ncn2)=C(O)C12CCC2 [Example 407, 6-[[2,3-Difluoro-4-(2-methyl-1-morpholin-4-ylpropan-2-yl)oxyphenyl]methyl]-9-hydroxy-5-methyl-7-oxo-N-[4-(trifluoromethyl)-2-[6-(trifluoromethyl)pyrimidin-4-yl]phenyl]-5,6-diazaspiro[3.5]non-8-ene-8-carboxamide] | 30%
CC(CN1CCOCC1)Oc1ccc(CN2C(=O)C(C(=O)Nc3ccc(C(F)(F)F)cc3-c3cc(C(F)(F)F)ncn3)=C(O)C3(CCC3)N2C)c(F)c1F (stereo not shown) [Example 408] | 47%
